{"source": "patent US6423855B1", "about": "“Cytoprotective compounds” (Virginia Commonwealth University, priority 1996, dated 2002)", "key": {"outer skin layers": {"system": "outer skin layers", "assay": "skin moisturization (20 megahertz ultrasound)", "assay_type": "in vivo, human", "conditions": "for Ultrasound Density Score: 30 minutes after application", "method": "(§1) Two PX compounds PX-11 and PX-13 were evaluated in a cream formulation prepared under GMP. The chemicals were formulated into a bland cream and evaluated in the following human or mouse skin tests: (1) occluded patch test for irritation; (2) cell turnover rate; (3) transepidermal water loss; (4) skin moisturization; and (5) reduction in erythema after induced sunburn. The human skin tests were conducted on three volunteer female subjects, ages 29-32; a cream base with no added active was included as a control, while the untreated skin served as an additional basis for evaluation. Sunburn tests were performed on a total of 30 hairless albino mice. 4. Skin moisturization. Skin moisturization was measured using 20 megahertz ultrasound (the presence of moisture produces a density decrease in the outer skin layers), before and 30 minutes after product application to the forearm."}, "[1]": {"system": "human NP-homogenate induced paw edema", "assay": "nucleus pulposus (NP)-induced mouse paw edema", "assay_type": "in vivo", "method": "Human NP-homogenate was prepared according to the following protocol and stored frozen until use. Human vertebral discs were thawed and the tissue pieces were washed twice with isotonic saline. Tissue samples were homogenized in a minimum volume of isotonic saline using a Brinkman homogenizer. This homogenate was filtered through two layers of cheesecloth and the resultant filtrate was subjected to Dounce homogenization. This homogenate was again filtered through two layers of cheesecloth and the filtrate was capable of passing through a 26-gauge needle; 50 ul of the filtrate was administered to each mouse paw.\nThe filtrate contained 1.57 mg/ml of protein and its PLA2 activity was 12.8% hydrolysis of 10 nmols of E.coli phospholipid/10 ul filtrate/30 min. incubation at 37° C. Therefore, each mouse paw received 78.5 ug NP filtrate. This sample of 78,500 ng total protein contained approximately 4.3 ng NP PLA2 protein. By comparison, we use 500-2000 ng of highly purified PLA2 to induce edema in this mouse model; and under these experimental conditions the maximal edema achieved is 160% of the contralateral paw minus 4-7% edema due to saline injection alone.\nThe data are expressed as percent of contralateral paw and as percent of maximal edema achieved with purified PLA2. Fifty ul (78.5 ug) was injected into the paw 30 min. after the mice were treated with PX-13 in HEPES administered IP or by gavage at 30 or 60 mg/kg. After 3 hrs,the paws were excised and weighed."}, "[2]": {"assay": "therapeutic index LD50/ED50"}, "pancreatin": {"system": "pancreatin", "assay": "degradation in vitro by pancreatin", "assay_type": "in vitro ADME", "conditions": "commercial pancreatic enzyme preparation (Sigma)", "source_text": "The compounds of the present invention are not generally hydrolyzed by pancreatic enzymes and are different from glycerol-based compounds in terms of their chemistry and metabolism. […] The resistance of PX-13 and PX-18 to metabolism by pancreatic enzymes supports their stability after oral administration."}, "[3]": {"assay": "small bowel storage in perfusate solution, tissue weight", "design": "species or system rat", "conditions": "24 and 48 hours in the perfusate solution", "method": "These drugs were also tested for their ability to enhance the preservation of tissues stored for subsequent transplantation. […] The graft was then transplanted into rats with or without intravenous (IV) infusion of 20 mg/kg PX-13 or mepacrine at the time of transplantation."}, "epidermal layer": {"system": "epidermal layer", "assay": "transepidermal water loss", "assay_type": "in vivo, human", "method": "as §1, with “3. Transepidermal water loss. This parameter” for “4. Skin moisturization. Skin moisturization”, “by affixing a flow cell on the forearm site, applying the cream, waiting” for “using”, “minutes, then flushing the volume with nitrogen and noting the moisture content” for “megahertz ultrasound (the presence”, “of” for “of moisture produces a density decrease in”, “effluent gases.” for “outer skin layers), before and 30 minutes after product application to the forearm.”"}, "[4]": {"assay": "peroxidation (malondialdehyde formation) of homogenized rat bowel", "method": "These drugs were also tested for their ability to enhance the preservation of tissues stored for subsequent transplantation. The small bowel was removed from rats, washed free of luminal contents and the tissue stored in University of Wisconsin (UW) preservative media ±40 uM PX-13 or mepacrine for 48 hrs. The graft was then transplanted into rats with or without intravenous (IV) infusion of 20 mg/kg PX-13 or mepacrine at the time of transplantation. Upon transplantation, the bowel is immediately injured as evidenced by tissue darkening within two minutes. […] Both PX-13 and mepacrine inhibit the peroxidation (malondialdehyde formation) of homogenized rat bowel, an indication that the membrane-stabilizing, PLA2-inhibitors, also have anti-oxidant activity."}, "platelets": {"system": "platelets", "assay": "platelet aggregation", "assay_type": "cell-based", "conditions": "25-μM dose", "source_text": "Applicants have also observed that PX-13 inhibited serotonin release by thrombin-stimulated platelets. This observation supports the contention that the PX compounds of the present invention may block release of inflammatory mediators in the coagulation cascade. This observation also supports the use of PX compounds to inhibit thrombin-induced platelet aggregation and to act as anti-clotting agents."}, "human blood cells": {"system": "human blood cells", "assay": "preservation of whole blood (LDH and hemoglobin release)", "assay_type": "cell-based", "method": "The effect of PX-13 and mepacrine on whole blood cell viability were tested as a function of time of storage.\nHeparinized human blood was centrifuged at 400×g and the resulting plasma was removed and replaced with an equal volume of Dulbecco's medium. The resuspended cells were then incubated at 37° C. for 0-72 hrs. in a shaking water bath. At the indicated times, a 0.8 ml aliquot was removed and centrifuged at 400×g to sediment cells. Appearance of lactate dehydrogenase (LDH) and hemoglobin in the supernate was indicative of cell injury. PX-13 and mepacrine stabilized cells and decreased the injury as evidenced by diminished levels of LDH and hemoglobin in the supernate. This is expressed as percent protection."}}}
{"smiles": "CCCCCCCC/C=C\\CCCCCCCC(=O)OCC(COC(=O)CCCCCCC/C=C\\CCCCCCCC)(COC(=O)CCCCCCC/C=C\\CCCCCCCC)NCCS(=O)(=O)O", "note": "[PX-13, 2-[Tris(oleoyloxymethyl)methylamino]-1-ethanesulfonic acid]", "values": [{"measurement": "Ultrasound Density Score", "setting": "outer skin layers; Subject 1, 7 = Best, 1 = Baseline", "result": 1}, {"measurement": "Ultrasound Density Score", "setting": "outer skin layers; Subject 2", "result": 2}, {"measurement": "Ultrasound Density Score", "setting": "outer skin layers; Subject 3", "result": "−1"}, {"measurement": "Ultrasound Density Score Total", "setting": "outer skin layers; Total of 3 subjects, 7 = Best, 1 = Baseline", "result": 2}, {"measurement": "moisturization properties", "setting": "outer skin layers; in vivo", "result": "not good moisturizers"}, {"measurement": "Percent Edema", "setting": "[1]; Gavage 30 mg/kg", "result": "122 ± 5.6", "unit": "%"}, {"measurement": "Percent Edema", "setting": "[1]; Gavage 60 mg/kg", "result": "118 ± 2.0", "unit": "%"}, {"measurement": "Percent of Maximal", "setting": "[1]; Gavage 60 mg/kg", "result": 22, "unit": "%"}, {"measurement": "Percent Inhibition", "setting": "[1]; Gavage 60 mg/kg, 60 mg/kg", "result": 36, "unit": "%"}, {"measurement": "Percent Inhibition", "setting": "[1]; IP 30 mg/kg", "result": 24, "unit": "%"}, {"measurement": "Percent of Maximal", "setting": "[1]; IP 30 mg/kg, maximal edema with purified PLA2 = 54%", "result": 26, "unit": "%"}, {"measurement": "Percent Edema", "setting": "[1]; IP 30 mg/kg, percent of contralateral paw, 3 hrs", "result": "120 ± 2.0", "unit": "%"}, {"measurement": "Percent Edema", "setting": "[1]; IP 60 mg/kg", "result": "115 ± 1.6", "unit": "%"}, {"measurement": "Percent of Maximal", "setting": "[1]; IP 60 mg/kg", "result": 17, "unit": "%"}, {"measurement": "Percent Inhibition", "setting": "[1]; IP 60 mg/kg, 60 mg/kg", "result": 50, "unit": "%"}, {"measurement": "therapeutic index (LD50/ED50)", "setting": "[2]", "result": "a large positive number"}, {"measurement": "degradation in vitro by pancreatin", "setting": "pancreatin", "result": "resistant to degradation"}, {"measurement": "weight of the tissues after storage", "setting": "[3]", "result": "reduced weight"}, {"measurement": "% Change in Transepidermal Water Loss", "setting": "epidermal layer; forearm, 20 minutes after applying cream", "result": "−8.5", "unit": "%"}, {"measurement": "effect on water loss from the epidermal layer", "setting": "epidermal layer; in vivo", "result": "functioned as an occluding moisturizer"}, {"measurement": "peroxidation (malondialdehyde formation)", "setting": "[4]", "result": "inhibit"}, {"measurement": "platelet aggregation", "setting": "platelets", "result": "inhibited"}, {"measurement": "Percent Protection Hemoglobin", "setting": "human blood cells; 20 uM, 48 hr", "result": 55, "unit": "%"}, {"measurement": "Percent Protection LDH", "setting": "human blood cells; 20 uM, 48 hr, 37° C.", "result": 22, "unit": "%"}, {"measurement": "Percent Protection Hemoglobin", "setting": "human blood cells; 20 uM, 72 hr", "result": 25, "unit": "%"}, {"measurement": "Percent Protection LDH", "setting": "human blood cells; 20 uM, 72 hr", "result": 15, "unit": "%"}, {"measurement": "Percent Protection Hemoglobin", "setting": "human blood cells; 80 uM, 48 hr", "result": 72, "unit": "%"}, {"measurement": "Percent Protection LDH", "setting": "human blood cells; 80 uM, 48 hr", "result": 39, "unit": "%"}, {"measurement": "Percent Protection Hemoglobin", "setting": "human blood cells; 80 uM, 72 hr", "result": 54, "unit": "%"}, {"measurement": "Percent Protection LDH", "setting": "human blood cells; 80 uM, 72 hr", "result": 41, "unit": "%"}, {"measurement": "Percent Protection Hemoglobin", "setting": "human blood cells; 160 uM, 48 hr", "result": 77, "unit": "%"}, {"measurement": "Percent Protection LDH", "setting": "human blood cells; 160 uM, 48 hr", "result": 78, "unit": "%"}, {"measurement": "Percent Protection Hemoglobin", "setting": "human blood cells; 160 uM, 72 hr", "result": 80, "unit": "%"}, {"measurement": "Percent Protection LDH", "setting": "human blood cells; 160 uM, 72 hr", "result": 72, "unit": "%"}]}
